The source made the active and inactive calls.
What was measured:
[1] = test system: B16-F10; assay: Induction of necroptosis in mouse B16-F10 cells assessed as cell death at 5 to 20 uM measured for 4 to 24 hrs in presence of Nec-1; type: functional, cell-based; details: dose 5-20 µM, time 4-24 hrs
[2] = test system: B16-F10; assay: Antitumor activity against mouse B16-F10 cells implanted in intratumorally dosed C57BL/6 mouse assessed as reduction in tumor volume administered for 3 days by vernier caliper method; type: functional, organism-based; details: time 3.0 day
[3] = test system: B16-F10; assay: Induction of cell cycle arrest in mouse B16-F10 cells assessed as accumulation at G0/G1 phase at 10 uM and measured after 24 hrs PI staining based by flow cytometry; type: functional
[4] = test system: B16-F10; assay: Induction of cell membrane disruption in mouse B16-F10 cells at 20 uM measured for 30 mins by PI staining based microplate reader assay
[5] = test system: B16-F10; assay: Disruption of membrane integrity in mouse B16-F10 cells at 10 uM measured after 1 hr by propidium iodide staining based laser scanning microscopic analysis; type: cell-based
[6] = test system: B16-F10; assay: Induction of ROS production in mouse B16-F10 cells at 10 uM measured for 0.5 to 4 hrs by MitoSOX red dye based microplate reader analysis; type: functional, cell-based; details: time 0.5-4 hrs
[7] = test system: B16-F10; assay: Induction of necrotic cell death in mouse B16-F10 at 10 uM measured after 1 to 24 hrs; type: functional, cell-based; details: time 1-24 hrs
[8] = test system: B16-F10; assay: Induction of ROS production in mouse B16-F10 cells at 10 uM measured for 0.5 to 4 hrs by DCFH-DA dye based microplate reader analysis; type: functional, cell-based; details: time 0.5-4 hrs
[9] = test system: B16-F10; assay: Induction of apoptosis in mouse B16-F10 cells assessed as decrease in ATP level; type: functional, cell-based
[10] = test system: B16-F10; assay: Cytotoxicity against mouse B16-F10 cells assessed as reduction in cell viability measured after 1 hrs by MTT assay; type: functional, cell-based; details: dose 1.25-20 µM
[11] = test system: B16-F10; assay: Membrano-lytic activity in mouse B16-F10 cell membrane at 1.25 to 20 uM measured after 4 hr by LDH leakage assay; type: cell-based; details: dose 1.25-20 µM
[12] = test system: B16-F10; assay: Cytotoxicity against mouse B16-F10 cells assessed as reduction in cell viability at 1.25 to 20 uM measured after 24 hrs by MTT assay; type: functional, cell-based; details: dose 1.25-20 µM
[13] = biological target: trypsin (Homo sapiens, UniProt P07477+P07478+P35030); assay: Stability of compound assessed as trypsin (unknown origin)-mediated compound degradation measured upto 6 hrs by RP-HPLC analysis; type: ADME, protein assay; details: trypsin (enzyme solution), read-out: Drug degradation
[14] = test system: B16-F10; assay: Membrano-lytic activity in mouse B16-F10 cell membrane at 20 uM measured at 0.5 to 4 hrs by LDH leakage assay; type: cell-based; details: time 0.5-4 hrs
[15] = test system: B16-F10; assay: Cytotoxicity against mouse B16-F10 cells assessed as induction of cell death measured for 4 to 24 hrs by MTT assay; type: functional, cell-based; details: time 4-24 hrs
[16] = test system: B16-F10; assay: Membrano-lytic activity in mouse B16-F10 cell membrane measured after 1 hr by LDH leakage assay; type: cell-based; details: dose 1.25-20 µM
[17] = test system: Staphylococcus aureus; assay: Antibacterial activity against Staphylococcus aureus ATCC […] assessed as reduction in bacterial growth measured for 18 hrs by serial dilution method; type: functional
[18] = test system: B16-F10; assay: Induction of necroptosis in mouse B16-F10 cells assessed as increase in ROS level; type: functional, cell-based
[19] = Toxicity in C57BL/6 […] mouse implanted with mouse B16-F10 cells assessed as animal death administered intratumorally; type: cell-based; details: in vivo, other, route it(Intratumoral)
[20] = test system: B16-F10; assay: Antiproliferative activity against mouse B16-F10 cells assessed as inhibition of cell viability by measuring ATP level at 10 uM measured for 4 to 24 hrs; type: functional, cell-based; details: time 4-24 hrs
[21] = test system: B16-F10; assay: Induction of cell membrane disruption in mouse B16-F10 cells at 20 uM by PI staining based microplate reader assay; details: time 30.0 min, TDE = time-dependent effect
[22] = test system: B16-F10; assay: Induction of apoptosis in mouse B16-F10 cells assessed as activation of caspase-3 incubated for 24 hrs by microplate reader analysis; type: functional, cell-based
[23] = test system: B16-F10; assay: Induction of mitochondrial membrane potential loss in mouse B16-F10 cells assessed as decrease in fluorescence intensity at 10 uM measured at 4 hrs by flow cytometry analysis; type: functional, cell-based
[24] = test system: B16-F10; assay: Induction of morphological changes in mouse B16-F10 cells assessed as cell bursting at 20 uM incubated for 30 mins by microscopic analysis; type: functional, cell-based
[25] = test system: Escherichia coli; assay: Antibacterial activity against Escherichia coli ATCC 25922 assessed as reduction in bacterial growth measured for 18 hrs by serial dilution method; type: functional
[26] = test system: B16-F10; assay: Induction of morphological changes in mouse B16-F10 cells assessed as cell swelling at 20 uM incubated for 30 mins by microscopic analysis; type: functional, cell-based
[27] = test system: B16-F10; assay: Induction of morphological changes in mouse B16-F10 cells assessed as cell rounding at 20 uM incubated for 30 mins by microscopic analysis; type: functional, cell-based
[28] = test system: B16-F10; assay: Induction of mitochondrial membrane potential loss in mouse B16-F10 cells assessed as decrease in fluorescence intensity at 10 uM measured at 0.5 to 4 hrs by flow cytometry analysis; type: functional, cell-based; details: time 0.5-4 hrs
[29] = test system: B16-F10; assay: Membrano-lytic activity in mouse B16-F10 cell membrane at 20 uM measured after 0.5 hr by LDH leakage assay; type: cell-based

H-KWKLFKKIGAVLKVL-NH2
active: Activity [1] | Activity [2] | Activity [4] | Activity [5] | Activity [6] | Activity [7] | Activity [8] | Activity [10] Dose-Dependent Effect | Activity [11] | Activity [12] | Activity [16] Dose-Dependent Effect | Activity [18] | Activity [20] | Activity [21] Tde | Activity [24] | Activity [26] | Activity [27] | Activity [28] | Activity [29]
4 µM: MIC [17]
inactive: Activity [3] | Activity [9] | Activity [14] | Activity [15] | Activity [22] | Activity [23]
Non-Toxic: Activity [19]
100%: metabolised at 6 h [13]
32 µM: MIC [25]
